Where two headings read alike, the source gives them in different places.
Tests used:
[1] = system: caterpillars of the armyworm (Spodoptera frugiperda); assay: Spodoptera frugiperda test (SPODFR spray treatment); format: in vivo; conditions: Spodoptera frugiperda, 168 h, read-out: activity in % (caterpillars killed)
[2] = system: larvae of the mustard beetle (Phaedon cochleariae); assay: Phaedon test (PHAECO spray treatment); conditions: Phaedon cochleariae, 168 h, read-out: activity in % (beetle larvae killed)
[3] = log P by HPLC on reversed-phase columns (EEC Directive 79/831 Annex V.A8); format: physicochemical
[4] = application rate 100 g/ha, after 7 days
[5] = reversed-phase C18 HPLC column, pH 2.7, HPLC reversed-phase C18, acidic range pH 2.7 (HCOOH), only or first value of the cell, read-out: log P

SMILES	pest or weed control at 100 g/ha [1] [%]	pest or weed control at 100 g/ha [2] [%]	chromatographic logP ([3]; pH 2.7, log P)	chromatographic logP [3, 5]	also measured
O=C(NC1COC1)c1cc(Cl)cc(Cl)c1NC(=O)c1cc(Cn2nnc(C(F)(F)F)n2)nn1-c1ncccc1Cl [Example 5]	100	100	2.79		
Cc1cc(Cl)cc(C(=O)NC2COC2)c1NC(=O)c1cc(Cn2nc(C(F)(F)F)nc2C(F)(F)F)nn1-c1ncccc1Cl [Example 8]	100	100	3.24		
Cc1cc(Cl)cc(C(=O)NC2COC2)c1NC(=O)c1cc(Cn2nnc(C(F)(F)C(F)(F)F)n2)nn1-c1ncccc1Cl [Example 9]	100	100	3.21		
Cc1cc(C#N)cc(C(=O)NC2CSC2)c1NC(=O)c1cc(Cn2nnc(C(F)(F)C(F)(F)F)n2)nn1-c1ncccc1Cl [Example 11]	100	100	3.43		
Cc1cc(C#N)cc(C(=O)NC2COC2)c1NC(=O)c1cc(Cn2nnnc2C(F)(F)F)nn1-c1ncccc1Cl [Example 12]	100	100	2.17		
Cc1cc(C#N)cc(C(=O)NC2COC2)c1NC(=O)c1cc(Cn2nc(C(F)(F)F)nc2C(F)(F)F)nn1-c1ncccc1Cl [Example 13]	100	100	2.95		
Cc1cc(Cl)cc(C(=O)NC2COC2)c1NC(=O)c1cc(Cn2nnc(C(F)F)n2)nn1-c1ncccc1Cl [Example 16]	100		2.37		
Cc1cc(C#N)cc(C(=O)NC2COC2)c1NC(=O)c1cc(Cn2nnc(C(F)F)n2)nn1-c1ncccc1Cl [Example 17]	83		2.05		
O=C(NC1COC1)c1cc(Cl)cc(Cl)c1NC(=O)c1cc(Cn2nnc(C(F)F)n2)nn1-c1ncccc1Cl [Example 19]	100		2.37		
Cc1cc(Cl)cc(C(=O)NC2=NCCS2)c1NC(=O)c1cc(Cn2nnc(C(F)(F)C(F)(F)F)n2)nn1-c1ncccc1Cl [Example 47]	100	100	3.9		log P (second value after the slash) ([3]; pH 2.7): 3.58
Cc1cc(C#N)cc(C(=O)NC2CCS(=O)(=O)C2)c1NC(=O)c1cc(Cn2nnc(C(F)(F)F)n2)nn1-c1c(F)cccc1F (centres unmarked) [Example 52]		100		2.75	pest or weed control at 100 g/ha [1, 4]: 100%
Cc1cc(C#N)cc(C(=O)NC2CS(=O)(=O)CC2O)c1NC(=O)c1cc(Cn2nnc(C(F)(F)F)n2)nn1-c1ccccc1Cl (centres unmarked) [Example 53]				2.64	
Cc1cc(Cl)cc(C(=O)NC2CCN(C)CC2)c1NC(=O)c1cc(Cn2nnc(C(F)(F)F)n2)nn1-c1ncccc1Cl [Example 55]	100		4.14		
Cc1cc(Cl)cc(C(=O)NC2CCSCC2)c1NC(=O)c1cc(Cn2nnc(C(F)(F)F)n2)nn1-c1ncccc1Cl [Example 56]	100	100	3.58		
Cc1cc(C#N)cc(C(=O)NC2CCN(C)CC2)c1NC(=O)c1cc(Cn2nnc(C(F)(F)F)n2)nn1-c1ccccc1Cl [Example 59]				1.79	
Cc1cc(Cl)cc(C(=O)NCC2CCCO2)c1NC(=O)c1cc(Cn2nnc(C(F)(F)F)n2)nn1-c1ncccc1Cl (centres unmarked) [Example 60]	100		3.25		
Cc1cc(Cl)cc(C(=O)NCC2(C)CCCO2)c1NC(=O)c1cc(Cn2nnc(C(F)(F)F)n2)nn1-c1ncccc1Cl (centres unmarked) [Example 61]	100	100	3.48		
Cc1cc(C#N)cc(C(=O)NCc2cccc(S(F)(F)(F)(F)F)c2)c1NC(=O)c1cc(Cn2nnc(C(F)(F)F)n2)nn1-c1ncccc1Cl [Example 63]		100		4.02	pest or weed control at 100 g/ha [1, 4]: 100%
Cc1cc(C#N)cc(C(=O)NCc2ccc(S(F)(F)(F)(F)F)cc2)c1NC(=O)c1cc(Cn2nnc(C(F)(F)F)n2)nn1-c1ncccc1Cl [Example 64]		100		4.01	pest or weed control at 100 g/ha [1, 4]: 100%
Cc1ccc(CNC(=O)c2cc(C#N)cc(C)c2NC(=O)c2cc(Cn3nnc(C(F)(F)F)n3)nn2-c2ccccc2Cl)cc1 [Example 78]				3.74	pest or weed control at 100 g/ha [1, 4]: 100%
Cc1cc(Cl)cc(C(=O)NCc2ccccc2)c1NC(=O)c1cc(Cn2nnc(CCC(F)(F)F)n2)nn1-c1ncccc1Cl [Example 79]			3.56		
Cc1cc(I)cc(C(=O)NCc2ccccc2)c1NC(=O)c1cc(Cn2nnc(CCC(F)(F)F)n2)nn1-c1ncccc1Cl [Example 80]			3.78		
Cc1ccc(CNC(=O)c2cc(Cl)cc(C)c2NC(=O)c2cc(Cn3nnc(C(F)(F)F)n3)nn2-c2ncccc2Cl)cc1 [Example 90]	100		4.08		
Cc1cc(C#N)cc(C(=O)NCc2ccccc2)c1NC(=O)c1cc(Cn2nnc(CCC(F)(F)F)n2)nn1-c1ncccc1Cl [Example 130]		100		3.21	

SMILES	pest or weed control at 100 g/ha [1] [%]	pest or weed control at 100 g/ha [2] [%]	chromatographic logP ([3]; pH 2.7, log P)	chromatographic logP [3, 5]	also measured
Cc1cc(Cl)cc(C(=O)NCc2ccccc2)c1NC(=O)c1cc(Cn2nnnc2CCC(F)(F)F)nn1-c1ncccc1Cl [Example 131]			3.2		
Cc1cc(C#N)cc(C(=O)NCc2ccccc2)c1NC(=O)c1cc(Cn2nnnc2CCC(F)(F)F)nn1-c1ncccc1Cl [Example 132]				2.84	
Cc1cc(I)cc(C(=O)NCc2ccccc2)c1NC(=O)c1cc(Cn2nnnc2CCC(F)(F)F)nn1-c1ncccc1Cl [Example 133]			3.45		
Cc1cc(I)cc(C(=O)NCc2ccccc2)c1NC(=O)c1cc(Cn2nc(C(F)(F)F)c(C(F)(F)F)n2)nn1-c1ncccc1Cl [Example 135]				4.75	
Cc1cc(Cl)cc(C(=O)NC(C)c2cc(Cl)cc(Cl)c2)c1NC(=O)c1cc(Cn2nnc(C(F)(F)F)n2)nn1-c1ncccc1Cl (centres unmarked) [Example 145]				4.66	
Cc1cc(I)cc(C(=O)NCc2cccc(OC(F)(F)F)c2)c1NC(=O)c1cc(Cn2nnc(C(F)(F)C(F)(F)F)n2)nn1-c1ncccc1Cl [Example 147]		100		4.36	
Cc1cc(C#N)cc(C(=O)NCc2ccccc2OC(F)(F)F)c1NC(=O)c1cc(Cn2nnc(C(F)F)n2)nn1-c1ncccc1Cl [Example 162]		100		3.37	
Cc1cc(Cl)cc(C(=O)NCc2cccc(OC(F)F)c2)c1NC(=O)c1cc(Cn2nnc(C(F)F)n2)nn1-c1ncccc1Cl [Example 176]				3.42	
Cc1cc(C#N)cc(C(=O)NCc2ccccc2OC(F)F)c1NC(=O)c1cc(Cn2nnc(C(F)F)n2)nn1-c1ncccc1Cl [Example 177]				3.07	
Cc1cc(C#N)cc(C(=O)NCc2ccccc2OC(F)F)c1NC(=O)c1cc(Cn2nnc(C(F)(F)F)n2)nn1-c1ncccc1Cl [Example 179]				3.55	
Cc1cc(C#N)cc(C(=O)NCc2ccc(OC(F)(F)F)cc2)c1NC(=O)c1cc(Cn2nnc(C(F)(F)F)n2)nn1-c1c(Cl)cccc1Cl [Example 181]				4.46	pest or weed control at 100 g/ha [1, 4]: 100%
Cc1ccc(Cl)c(C(=O)NCc2ccc(Cl)cc2)c1NC(=O)c1cc(Cn2nnc(C(F)(F)F)n2)nn1-c1ncccc1Cl [Example 198]			3.68		
Cc1ccc(Cl)c(C(=O)NCc2ccccc2OC(F)(F)F)c1NC(=O)c1cc(Cn2nnc(C(F)(F)F)n2)nn1-c1ncccc1Cl [Example 199]				3.92	
Cc1ccc(Cl)c(C(=O)NCc2cccc(OC(F)(F)F)c2)c1NC(=O)c1cc(Cn2nnc(C(F)(F)F)n2)nn1-c1ncccc1Cl [Example 200]				3.94	
Cc1ccc(Cl)c(C(=O)NCc2ccc(OC(F)(F)F)cc2)c1NC(=O)c1cc(Cn2nnc(C(F)(F)F)n2)nn1-c1ncccc1Cl [Example 201]				3.93	
O=C(NCc1ccccc1Cl)c1cc2ccccc2c(Cl)c1NC(=O)c1cc(Cn2nnc(C(F)(F)F)n2)nn1-c1ncccc1Cl [Example 218]				4.1	
O=C(NCc1cccc(Cl)c1)c1cc2ccccc2c(Cl)c1NC(=O)c1cc(Cn2nnc(C(F)(F)F)n2)nn1-c1ncccc1Cl [Example 219]				4.13	
O=C(NCc1ccc(Cl)cc1)c1cc2ccccc2c(Cl)c1NC(=O)c1cc(Cn2nnc(C(F)(F)F)n2)nn1-c1ncccc1Cl [Example 220]				4.11	
O=C(NCc1ccccc1OC(F)(F)F)c1cc2ccccc2c(Cl)c1NC(=O)c1cc(Cn2nnc(C(F)(F)F)n2)nn1-c1ncccc1Cl [Example 221]				4.36	pest or weed control at 100 g/ha [1, 4]: 100%
O=C(NCc1cccc(OC(F)(F)F)c1)c1cc2ccccc2c(Cl)c1NC(=O)c1cc(Cn2nnc(C(F)(F)F)n2)nn1-c1ncccc1Cl [Example 222]				4.38	pest or weed control at 100 g/ha [1, 4]: 100%
O=C(NCc1ccc(OC(F)(F)F)cc1)c1cc2ccccc2c(Cl)c1NC(=O)c1cc(Cn2nnc(C(F)(F)F)n2)nn1-c1ncccc1Cl [Example 223]				4.36	pest or weed control at 100 g/ha [1, 4]: 100%
Cc1ccc(CNC(=O)c2cc(Cl)cc(C)c2NC(=O)c2cc(Cn3nnc(C(F)(F)F)n3)nn2-c2ncccc2Cl)nc1C [Example 227]	100		2.1		
CCCc1cccc(CNC(=O)c2cc(Cl)cc(C)c2NC(=O)c2cc(Cn3nnc(C(F)(F)F)n3)nn2-c2ncccc2Cl)n1 [Example 229]		100		2.94	
Cc1cc(Cl)cc(C(=O)NCc2cc3ccccc3nc2Cl)c1NC(=O)c1cc(Cn2nnc(C(F)(F)F)n2)nn1-c1ncccc1Cl [Example 237]				3.94	
